Common to all, as to format: cell-based
Test [1] relates to transglutaminase type 1 promoter linked to a firefly luciferase gene (TG-1 Luc). Put plainly: TG-1 Luc reporter assay in transfected human epidermal keratinocytes (HEKs). The method, then: (§1) Human epidermal keratinocytes (HEKs) were isolated and cultured from neonatal foreskins as described (1). The SCC cell line, KJD-1/SV40, were grown in culture as previously reported (2). Growth arrest and differentiation was induced by maintaining confluent cells in culture over 48 hours or by treatment with the protein kinase C (PKC) activator, 12-Otetradecanoyl-phorbol-13-acetate (TPA, 50 ng/ml for 48 hours). Both these treatment regimes induce robust and reproducible differentiation in HEKs but not in SCC cell lines (2, 41-43).
(§2) The human cdc2 promoter construct driving expression of a CAT reporter gene (cdc2-CAT) has been previously described (6). The 2.9kb transglutaminase type 1 promoter linked to a firefly luciferase gene (TG-1 Luc), keratin 10 reporter (K10-Luc), β actin-CAT reporter gene and β actin-luciferase reporter gene have also been previously described (2, 6, 41, 44, 45). β actin-CAT or β actin-Luc reporters were used to normalize for transfection efficiency. The CMV-E2F1 construct was a kind gift from Dr Kristian Helin (16). The CMV-E2F 2-5 constructs were generous gifts from Dr David Livingston (46). The mutant E2F1 constructs, 132E2F1 and 409E2F1, were kindly provided by Dr Joseph Nevins (47). The E2F1 dominant-negative (E2Fd/n) construct codes for amino acids 116-235, spanning for the DNA binding domain and heterodimerisation domain (2).
(§3) Transient transfections of cells were performed in 10 cm^2 well, when cells were either 50% or 100% confluent. Reporter activity was assayed 48 hours post-transfection. Transfection protocols for cultured HEKs using Lipofectamine™ (Invitrogen, Australia) and KJD-1/SV40 cells using Effectene (Qiagen, Australia) have been described previously (2). Transfections were performed in triplicate and repeated at least three times.
(§4) Chloramphenicol acetyltransferase assays (CAT) were performed using a CAT ELISA kit (Roche, Australia) as per manufacturer's instructions. The luciferase assay protocol has been previously reported (6, 41).
In general terms: Reporter assays use an easily measured gene product as a stand-in for the process of interest.

The test system of test [2] is keratin 10 promoter linked to a firefly luciferase gene (K10-Luc). The test can be described thus: K10-Luc reporter assay in transfected human epidermal keratinocytes (HEKs). The method, then:
as §1, §2, §3, §4

Test [3] deals with transglutaminase-1 promoter (TG-1 Luc) in KJD-1/SV40 cells. The test can be described thus: TG-1 Luc reporter assay in KJD-1/SV40 squamous cell carcinoma cells. Particulars: proliferating KJD-1/SV40 cells; TPA 50 ng/ml for 48 hours where used; FIG. 6. The procedure:
as §1
as §2, with “(2). […]” for “(2).”

The subject of test [4] is human cdc2 promoter (cdc2-CAT). The test can be described thus: cdc2-CAT reporter assay in transfected human epidermal keratinocytes (HEKs). Particulars: proliferating HEKs co-transfected with expression plasmid. The method, then:
as §1
as §2, with “(2). […]” for “(2).”

The mark [5] stands for this setting: differentiated (confluent or TPA-treated) HEKs co-transfected with expression plasmid, assayed 48 hours post-transfection.
Where [6] appears, read: cultured HEKs induced to differentiate by treatment with TPA (50 ng/ml for 48 hours), FIG. 1.

Entries after “also recorded” stand apart in the source; their conditions may differ.

In the case of “E2F1: E2F1 transcription factor overexpressed from the CMV-E2F1 expression plasmid”, the “TG-1 Luc activity” value in test [1] (setting [5]) is given as “significantly suppressed; also recorded: suppresses”. For the same compound, the K10-Luc activity entry in test [2] (setting [5]) is given as “significantly suppressed”.

As to `CCCCCCCCCCCCCC(=O)O[C@@H]1[C@@H](C)[C@@]2(O)[C@@H](C=C(CO)C[C@]3(O)C(=O)C(C)=C[C@@H]23)[C@@H]2C(C)(C)[C@]12OC(C)=O` [TPA, 12-O-tetradecanoylphorbol-13-acetate, reference compound], the “TG-1 Luc activity” value in test [1] (setting [6]) is recorded as “increased”; in test [3], “no induction”. Also, in test [2] (setting [6]), the K10-Luc activity entry is given as “increased”.

Take “E2Fd/n: E2F1 dominant-negative construct coding for amino acids 116-235, spanning the DNA binding domain and heterodimerisation domain”: the “TG-1 Luc activity” value in test [1] (setting [5]) is given as “superinduce/derepress; also recorded: superinduces/derepresses”; in test [1] (proliferating HEKs transfected with E2Fd/n), “not sufficient to induce”; in test [3] it was “not altered”. Besides, the K10-Luc activity result in test [2] (setting [5]) is given as “superinduces/derepresses”. The “cdc2-CAT reporter activity (proliferation-specific marker)” value in test [4] was “suppression”.

For the origin of these results see US20050245473A1, “Proliferation- and differentiation-modulating agents and uses therefor” (priority 2003, published 2005).
